According to patent US6376497B1, “Antifungal azole derivatives having a fluorinated vinyl group and process for preparing same” (Korea Research Institute of Chemical Technology, priority 1999, dated 2002):

Experiments:
Assay in all cases: In vitro antifungal activity, microbroth dilution MIC
Format in all cases: cell-based
Conditions in all cases: RPMI-1640, 35° C., 4 to 48 hours, no growth observed
Candida albicans C1-2 = system: Candida albicans C1-2
Outline: (§1)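 Broth microdilution adapted from NCCLS M27, in RPMI-1640 with 0.165 M MOPS, pH 7.0. Yeast or mould inoculum at 2×10^3 CFU/ml was mixed 1:1 with DMSO-derived compound solutions (200 to 0.10 μg/ml before mixing) and incubated at 35 °C for 4 to 48 h. MIC was the concentration showing no growth.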

[1] = system: Cryptococcus neoformans IFM. 40092
Outline: as §1

[2] = system: Cryptococcus neoformans B. 42419
Outline: as §1

[3] = system: Trichophyton mentagrophytes A. 9129
Outline: as §1

[4] = system: Candida albicans A. 10231
Outline: as §1

[5] = system: Aspergillus furnigatus B. 19119
Outline: as §1

[6] = system: Cryptococcus neoformans A. 34144
Outline: as §1

Candida krusei K. 11655 = system: Candida krusei K. 11655
Outline: as §1

[7] = system: Aspergillus niger A. 16404
Outline: as §1

[8] = system: Candida pseudotropicalis K. 11658
Outline: as §1

[9] = system: Candida albicans IFO. 1385
Outline: as §1

[10] = system: Candida tropicalis A. 13803
Outline: as §1

[11] = system: Candida parapsitosis A. 7330
Outline: as §1

[12] = system: Trichophyton mentagrophytes B. 32663
Outline: as §1

[13] = system: Torulopsis glabrata B. 16205
Outline: as §1

Row | Structure (SMILES) | Minimal inhibitory concentration(MIC), C. albicans C1-2 (Candida albicans C1-2) | Minimal inhibitory concentration(MIC), Cry. neoformans IFM. 40092 [1] | Minimal inhibitory concentration(MIC), Cry. neoformans B. 42419 [2] | Minimal inhibitory concentration(MIC), T. mentagrophytes A. 9129 [3] | Minimal inhibitory concentration(MIC), C. albicans A. 10231 [4] | Minimal inhibitory concentration(MIC), A furnigatus B. 19119 [5] | Minimal inhibitory concentration(MIC), Cry. neoformans A. 34144 [6] | Minimal inhibitory concentration(MIC), C. krusei K. 11655 (Candida krusei K. 11655) | Minimal inhibitory concentration(MIC), A. niger A. 16404 [7] | Minimal inhibitory concentration(MIC), C. pseudotropicalis K. 11658 [8] | Minimal inhibitory concentration(MIC), C. albicans IFO. 1385 [9] | Minimal inhibitory concentration(MIC), C. tropicalis A. 13803 [10] | Minimal inhibitory concentration(MIC), C. parapsitosis A. 7330 [11] | Minimal inhibitory concentration(MIC), T. mentagrophytes B. 32663 [12] | Minimal inhibitory concentration(MIC), T. glabrata B. 16205 [13]
1 | CC(C)(C)c1ccc(C(=C(F)Oc2ccc(OCC3COC(Cn4ccnc4)(c4ccc(F)cc4F)O3)cc2)C(F)(F)F)cc1 (mixture of isomers) [Ex. 109] | 50.0 µg/mL | 0.39 µg/mL | 3.13 µg/mL | 6.25 µg/mL | 100 µg/mL | >100 µg/mL | 1.56 µg/mL | >100 µg/mL | >100 µg/mL | >100 µg/mL | 3.13 µg/mL | >100 µg/mL | >100 µg/mL | 3.13 µg/mL | 100 µg/mL
2 | Cc1ccc(C(=C(F)Oc2ccc(OCC3COC(Cn4ccnc4)(c4ccc(F)cc4F)O3)cc2)C(F)(F)F)cc1C (mixture of isomers) [Ex. 110] | 50.0 µg/mL | 0.39 µg/mL | 3.13 µg/mL | 6.25 µg/mL | 100 µg/mL | >100 µg/mL | 1.56 µg/mL | >100 µg/mL | >100 µg/mL | >100 µg/mL | 3.13 µg/mL | >100 µg/mL | >100 µg/mL | 3.13 µg/mL | 100 µg/mL
3 | FC(Oc1ccc(OCC2COC(Cn3ccnc3)(c3ccc(F)cc3F)O2)cc1)=C(c1cccc(C(F)(F)F)c1)C(F)(F)F (mixture of isomers) [Ex. 111] | 50.0 µg/mL | 0.39 µg/mL | 3.13 µg/mL | 6.25 µg/mL | 100 µg/mL | >100 µg/mL | 1.56 µg/mL | >100 µg/mL | >100 µg/mL | 100 µg/mL | 3.13 µg/mL | >100 µg/mL | 100 µg/mL | 3.13 µg/mL | 100 µg/mL
4 | FC(Oc1ccc(OCC2COC(Cn3ccnc3)(c3ccc(F)cc3F)O2)cc1)=C(c1ccc2c(c1)OCO2)C(F)(F)F (mixture of isomers) [Ex. 112] | 12.5 µg/mL | 0.39 µg/mL | 1.56 µg/mL | 6.25 µg/mL | 25.0 µg/mL | >100 µg/mL | 1.56 µg/mL | >100 µg/mL | >100 µg/mL | 25.0 µg/mL | 1.56 µg/mL | 100 µg/mL | >100 µg/mL | 3.13 µg/mL | 50.0 µg/mL
5 | FC(Oc1ccc(OCC2COC(Cn3ccnc3)(c3ccc(F)cc3F)O2)cc1)=C(c1ccc(Oc2ccccc2)cc1)C(F)(F)F (mixture of isomers) [Ex. 113] | >100 µg/mL | 0.39 µg/mL | 3.13 µg/mL | 25.0 µg/mL | >100 µg/mL | >100 µg/mL | 1.56 µg/mL | >100 µg/mL | >100 µg/mL | 100 µg/mL | 3.13 µg/mL | >100 µg/mL | >100 µg/mL | 12.5 µg/mL | >100 µg/mL
6 | FC(Oc1ccc(OCC2COC(Cn3ccnc3)(c3ccc(F)cc3F)O2)cc1)=C(c1cccc(Cl)c1)C(F)(F)F (mixture of isomers) [Ex. 114] | 25.0 µg/mL | 0.39 µg/mL | 1.56 µg/mL | 6.25 µg/mL | 50.0 µg/mL | >100 µg/mL | 1.56 µg/mL | >100 µg/mL | >100 µg/mL | >100 µg/mL | 1.56 µg/mL | >100 µg/mL | >100 µg/mL | 3.13 µg/mL | 50.0 µg/mL
